This is an account of results in patent US10730886B2, “Compound having effect of inhibiting platelet aggregation and salt thereof, and composition for preventing or treating thrombotic diseases, containing same” (SHIN POONG PHARMACEUTICAL CO., LTD., priority 2015, dated 2020).

The term NOAEL denotes the highest dose or exposure tested at which no adverse effect was seen.

In series [1] the test system is iron chloride (FeCl3)-induced thrombogenesis model. In words: Arterial thrombosis model, FeCl3-induced carotid artery thrombogenesis. In kind it is in vivo, Sprague-Dawley rats. The note with it: rat, 25 mg/kg oral. The protocol:
Vehicle (DMSO: Tween 80: DW=1:2:17) or candidate substance (25 mg/kg) was orally administered to overnight-fasted male Sprague-Dawley rats (250 to 300 g). 30 minutes after administration, the rats were anesthetized by intraperitoneal injection of urethane (1.25 g/kg). The anesthetized animals were restrained on the operating table, and the body temperature was maintained using a heating pad during the entire operating procedure. An incision was made around the neck of the animals to carefully expose the right carotid artery, and the adipose tissues attached to the blood vessels were carefully removed. Doppler flow probe (0.5 mm-diameter, MA0.5PSB, Transonic System Inc., USA) was fixed to the exposed carotid artery, and a doppler flow-meter (TS420, Transonic System Inc., USA) was connected thereto. 60 minutes after oral administration, a piece of Whatman No. 1 filter paper (2 mm×1 mm) soaked with 50% FeCl3 solution was attached to the underlying blood vessels to which the probe was fixed. The filter paper was removed after 10 minutes, and the change of blood flow due to thrombus formation in the carotid artery was measured for 60 minutes after the time point of removal. The occlusion time was defined as the time at which the blood flow became zero more than one minute for the first time.

The subject of series [2] is thrombin-induced platelet aggregation, Human PRP. In words: Thrombin-induced platelet aggregation in human PRP (lumi-aggregometer).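 Note: aggregation recorded for 5 min after thrombin addition.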 In kind it is cell-based. The note with it: thrombin 0.6-0.8 U/ml. The protocol: To investigate whether the candidate substance has inhibition selectivity for shear-stress-induced platelet aggregation, which is by a physical stimulus, […] experiment was conducted by activating platelets with physiological agonists—i.e., thrombin, collagen and ADP—to study the inhibitory effect of the candidate substance.
Human PRP (598.8 μl) was treated with 1.2 μl of the candidate substance per concentration (25, 100, 250 μM) and reacted at 37° C. for 3 minutes using a thermomixer. Then, PRP (495 μl) was put in the aggregometer cuvette and preincubated for 1 minute, followed by treatment with platelet aggregation-inducing reagent, thrombin (0.6-0.8 U/ml), collagen (2-5 μg/ml), or ADP (adenosine diphosphate, 15-20 μM) at the minimum concentration causing maximum aggregation. The degree of aggregation of the platelets was measured by a turbidity change using a lumi-aggregometer (Chrono-Log Co., USA). The turbidity of the PRP was considered as 0%, and the turbidity of the PPP was considered as 100%. During the measurement, the reaction mixture was continuously stirred at 1,000 rpm with a silicone-coated magnetic stir bar.

The test system of a further series is human platelets. Kind of series: Cytotoxicity in human platelets (LDH leakage). The note with it: 3 min. In kind it is cell-based. The protocol: 5-2. Evaluation of Cytotoxicity of Candidate Substances Using Human Platelets
Leakage of lactate dehydrogenase (LDH) from the platelets was measured by a spectro-photometry method. 1.2 μl of the test substance was added to 598.8 μl of PRP, and the mixture was reacted at 37° C. for 3 minutes using a thermomixer. After the reaction, 100 μl of the sample was centrifuged at 12,000 g for 2 minutes, and 80 μl of the supernatant was taken and refrigerated until evaluation. The evaluation was performed within 24 hours. […] 25 μl of the sample was added to 1 ml of a pre-warmed Tris-EDTA NADH solution (56 mM Tris(hydroxymethyl) aminomethane, 5.6 mM EDTA, 0.17 mM β-NADH pH 7.4) and reacted for 5 minutes at 37° C. Then, 100 μl of a 14 mM pyruvate solution previously heated at 37° C. was added to the reaction mixture, and absorbance was immediately measured at a wavelength of 339 nm for 1 minute using a spectrophotometer (UV-Vis spectrophotometer, UV-2201, Shidamadzu, Japan). The rate of decrease in absorbance means the rate of oxidation of NADH, indicating the activity of LDH liberated from platelets. Total activity of LDH was measured by inducing lysis of platelets with 0.3% Triton X-100. The basal level of LDH (Control) was measured in plasma. The activity of each sample was measured as a percentage of the total activity of LDH.
On the technique in general: LDH in the medium is a marker of cell lysis.

In series [3] the test system is human liver cells (HepG2). In words: Cytotoxicity in human liver cells HepG2 (WST-1). The note with it: HepG2, 250 μM, 18 hours. In kind it is cell-based. The protocol:
5-3. Evaluation of Cytotoxicity of Candidate Substances Using Human Liver Cells
Experiments were conducted to evaluate cytotoxicity in human liver cells (HepG2). HepG2 cells, which are human liver carcinoma cell lines, were cultured in DMEM (Dulbecco's minimum essential medium) supplemented with 10% FBS (fetal bovine serum) and 1% Penicillin/Streptomycin at 37° C. and 5% CO2. The cells were cultured in a 48 well plate at 4×10^4 cells/well for 24 hours and then used in the experiments. The HepG2 cells were treated with the candidate substances (250 μM) for 18 hours, and then the medium was removed and WST-1 was added, followed by shading for 3 hours for reaction. After 3 hours, the supernatant was taken and absorbance was measured at 450 nm. Cell viability was calculated by comparing the absorbance measured after adding WST-1 to HepG2 cells not treated with the candidate substances. Acetaminophen (40 mM) was used as a control.
Background: Formazan colour is commonly taken as a measure of viable cells.

A further series has as its system plasma. Kind of series: Plasma coagulation time, Prothrombin Time (PT). In kind it is biochemical. The note with it: plasma treated 3 minutes. The protocol: In order to separate plasma, blood was collected with 3.2% sodium citrate as an anticoagulant. Whole blood was centrifuged at 2000 g for 20 minutes to obtain plasma. After treating the plasma with the test substances for 3 minutes, plasma coagulation time was measured. For plasma coagulation time, Activated Partial Thromboplastin Time (aPTT) and Prothrombin Time (PT) were measured using BBL® Fibrometer (Becton Dickinson, Cockeysville, Md.). For measurement of aPTT, the plasma was treated with aPTT reagents in fibrometer cup and reacted at 37° C. for 3 min. After the reaction, CaCl2 was added and blood coagulation time was measured immediately. For the measurement of PT, PT reagent was added to warmed plasma, and blood coagulation time was measured immediately. DTI, known to prolong plasma coagulation time, was used as a control.

Series [4] can be described thus: 2-week repeat-dose toxicity study. In kind it is in vivo. To be noted: both sexes, mouse, in vivo; ICR mice, oral 100, 300, 1000 mg/kg once a day for 2 weeks; read-out: NOAEL (No observed adverse effect level). The protocol:
(§1) After oral administration of vehicle (0.5% methylcellulose) or the candidate substances at low dose, medium dose, and high dose (100, 300, 1000 mg/kg) to ICR mice (female, male, 18 to 26 g) once a day for 2 weeks, the NOAEL values of the candidate substances were calculated by observing and recording mortality, body weight change, clinical observations, food and drinking water consumption, gross necropsy findings, histopathological evaluation of abnormal organ, and organ weights.

The subject of the next series is ICR mice. Kind of series: 2-week repeat-dose toxicity study. In kind it is in vivo. To be noted: oral 100, 300 and 1000 mg/kg once a day for 2 weeks. The protocol:
as §1

Molecules are shown by their SMILES. Some results are limits rather than exact numbers.

Regarding `COc1cc(C(=O)Oc2c(C)occc2=O)ccc1O` [Example 14, 2-Methyl-4-oxo-4H-pyran-3-yl 4-hydroxy-3-methoxybenzoate], the “Time of thrombogenesis” value in series [1] (FeCl3 applied 60 min after administration, occlusion time) stood at 615 ± 54 s. Besides, the “Fold (vs. Control)” value in series [1] (time of thrombogenesis vs. vehicle control) is given as 1.7. Besides, the “Degree of platelet aggregation (%, Mean ± SEM)” value is recorded as 81.3 ± 2.5% in series [2] (25 μM), 84.0 ± 0.6% in series [2] (100 μM) and 86.0 ± 4.6% in series [2] (250 μM). Further, the “LDH leakage (%, Mean ± SEM)” value in the series with human platelets (25 μM) is on record as 4.8 ± 0.2%; with human platelets (100 μM) it was 5.6 ± 0.9%; in the series with human platelets (250 μM) it was 4.2 ± 0.9%. The “Cell vaibility (%)” value in series [3] stood at 87.3 ± 2.7%. The “plasma coagulation time - PT, Time” value with plasma (25 μM) came out at 10.1 ± 0.3 s; with plasma (100 μM), 10.1 ± 0.0 s; in the series with plasma (250 μM), 11.1 ± 0.1 s. The NOAEL at 2 weeks in series [4] was greater than 1000 mg/kg. Besides, in the series with ICR mice, the “findings in body weight change, clinical observations, food and drinking water consumption, gross necropsy findings, and organ weights” value is “no abnormal findings were observed”. The mortality result in the series on ICR mice was “no dead animals were observed”.
